According to patent publication US7429397B2, “Herbal formulation as memory enhancer in Alzheimer condition” (Council of Scientific and Industrial Research, priority 2004, dated 2008):
Marks after values point to notes of the source that are not given here.

Legend:
[1] = tested on: λ carrageenin induced edema in rats; experiment: λ carrageenin induced paw edema; type: in vivo
Protocol: Carrageenin induced paw edema: Rats were injected with 0.1 ml of 1% λ carrageenin (St.-Louis, Mo.) into the subplantar side of the left hind paw. The paw was marked with ink at the level of the lateral malleolus and dipped in perspex cell up to this mark. The paw volume was measured with an Ugo Basile Plethysmometer (No: 61402) (7140 Comerio-varese, Italy) immediately and 3 h after injecting the λ carrageenin suspension. […] Significant reductions in the paw volume compared to vehicle treated control animals were considered as anti-inflammatory response. Percentage inhibition of oedema was calculated as follows: % Inhibition=(1−VT/VC)×100 VT=Paw volume in drug treated rats, VC=Paw volume in control group of rats.

[2] = tested on: impairment of memory acquisition in step-down test in rats (scopolamine); experiment: Passive avoidance task (step-down test), scopolamine-induced impairment of memory acquisition; type: in vivo
Protocol: Passive avoidance task (step-down test): A step-down passive avoidance was examined using apparatus consisted of a box (25×25×40 cm), a floor with stainless-steel grid 2 mm in diameter at 8-mm intervals, and a rubber platform (4 cm diameter, 4 cm height) set on the grid in one corner. Electric stimulation was given through the grid connected with a scrambled shock generator. […] For this trial, each rat was placed gently on the platform and allowed to habituate freely for 3 min, and then electric shock (0.4 mA) were delivered to the grid. If the rat stepped down from the platform, the electric shock was delivered to the rat on the grid floor. The cut off time was 2 min. A retention trail was performed 24 hr after the acquisition trail. Each rat was again placed on the platform. Time (step-down latency) that elapsed until rats stepped down from the electric grid of the platform to shock free zone was recorded. […] An error was counted when ever the rat stepped down from platform. The number of error made in 2 min was recorded.

SMILES: COc1ccc2c(c1)c(CC(=O)O)c(C)n2C(=O)c1ccc(Cl)cc1 [Indomethacin]
- Paw volume (ml) at 3 h λ carrageenin ([1]; 100 mg/kg orally 1 h before carrageenin, six rats, mean ± SEM): 0.18 ± 0.02^c ml
- inhibition at 100 mg/kg ([1]; Rattus norvegicus, inhibition of paw oedema at 3 h vs control, 100 mg/kg, (1−VT/VC)×100): 79.3%

SMILES: CN1[C@@H]2C[C@@H](OC(=O)[C@H](CO)c3ccccc3)C[C@H]1[C@@H]1O[C@@H]12 [Scopolamine]
- number of mistakes and latency period (in words) ([2]; scopolamine treated group): significant increase in the number of mistakes as well as increase the latency period
- Latency ([2]; step-down test, rats n=10, scopolamine 0.4 mg/kg i.p., formulations 100 mg/kg, tacrine dose not given, mean ± S.E.M.): 8.8 ± 0.03 s
